Test results published in publication PMC10692721, “Drug discovery for heart failure targeting myosin-binding protein C” (The Journal of Biological Chemistry, 2023).
*1 amine or outer side, *2 acyl side, *3 side chain or, on linkers, in order; H or OH if unused. Where a SMILES comes first, the peptide text is derived from it. Bridges are numbered along the chain shown (N, C = ends). [ ]: non-standard residue; d: D form. The star is where a group is joined. Orn(4R-OH,5R-OH) = O=C([C@H](C[C@@H](O)[C@@H](O)N[*:3])N[*:1])[*:2]; Tetradecanoyl(10R,12S-Me2) = CC[C@H](C)C[C@H](C)CCCCCCCCC(=O)*; hTyr(3S-OH,4S-OH) = N[C@H](C(=O)O)[C@H](O)[C@@H](O)c1ccc(O)cc1; Gln(3R-OH) = NC(=O)C[C@@H](O)[C@H](N)C(=O)O; Pro(3S-OH) = O=C(O)[C@H]1NCC[C@@H]1O; Hyp = O=C(O)[C@@H]1C[C@@H](O)CN1

What was measured:
[1] = test system: TMR-cC0-C2 (C0-C2 fragment of human cMyBP-C); experiment: FLT-TMR concentration-response assay (FLT of TMR on cC0-C2, no actin); format: binding; settings: 60 μM compound
Summary of the method: (§1)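 Hits tested at eight concentrations (0.5–100 μM) and read on a high-throughput fluorescence lifetime plate reader. Hill fits applied only under certain conditions.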

[2] = test system: PKA-phosphorylated TMR-cC0-C2 (cC0-C2#P); experiment: FLT-TMR concentration-response assay, PKA-phosphorylated cC0-C2; format: binding, human; settings: 60 μM compound
Summary of the method: as §1

[3] = test system: TMR-fC1-C2 (C1-C2 of fast skeletal MyBP-C); experiment: FLT-TMR concentration-response assay, fC1-C2; format: binding; settings: 60 μM compound
Summary of the method: as §1

[4] = test system: FMAL-actin/TMR-fC1-C2 interaction; experiment: FLT-FRET concentration-response assay, FMAL-actin plus TMR-fC1-C2; format: binding
Summary of the method: as §1

[5] = test system: bovine cardiac (left ventricular) myofibrils; experiment: Cardiac myofibril ATPase assay; format: biochemical; settings: 50 μM compound, pCa 8 to pCa 4
Experimental: Rabbit psoas and bovine cardiac myofibrils were prepared as described in our previous study ([17]). An enzyme-coupled, NADH-linked ATPase assay was used to measure skeletal and cardiac myofibril ATPase activity in 96-well microplates at 23 °C. Ionic strength was maintained below 0.2 M, so myofilaments remained insoluble and stable ([32]). To achieve optimal enzymatic activities, buffers for skeletal and cardiac myofibrils differed slightly ([33], [34]): skeletal in 50 mM MOPS, 100 mM KCl, 5 mM MgCl2, 1 mM EGTA, pH 7.0; cardiac in 20 mM MOPS, 35 mM NaCl, 5 mM MgCl2, 1 mM EGTA, pH 7.0. Each well in the microplate contained an assay mix of 0.84 mM phosphoenolpyruvate, 0.17 mM NADH, 10 U/vol pyruvate kinase, 20 U/vol lactate dehydrogenase. The concentration of free Ca^2+ was controlled by EGTA buffering ([35]). Myofibrils were dispensed in microplates with a multichannel pipette and were incubated with assay mix plus compound of interest for 20 min at 23 °C. The concentration of myofibrils used was 0.01 mg/ml for skeletal and 0.05 mg/ml for cardiac myofibrils. The assay was started upon the addition of ATP, at a final concentration of 2.1 mM (total volume to 200 μl), and absorbance was recorded at 340 nm in a SpectraMax Plus microplate spectrophotometer from Molecular Devices. The steady-state myofibrillar ATPase rate was measured from NADH oxidation, measured as the rate of decrease in absorption at 340 nm for 30 min, with absorption data collected every 15 s. All data and statistical analysis of steady-state kinetics were conducted with the OriginPro program. The results were fitted with the Hill equation:(6) […] is the ATPase rate and n is the Hill coefficient. ATPase activity is reported on the μmol ATP/mg protein/min scale. Average data are presented as mean ± SD. Sample means are derived from three different myofibril preps (N = 3), each done in duplicate (n = 6). The effects of compounds on ATPase activity of myofibrils were determined in the presence of 50 μM compound, across a 12-point pCa range from 4.0 (activation) to 8.0 (relaxation). The calcium sensitivity (pCa50) was determined by fitting the curves to the Hill equation. […] The normalized ATPase activity of the selected compounds can be found in Figure 6.

effect on FLT-FRET / binding between FMAL-actin and TMR-fC1-C2 (in words) [4]: increased the binding
increase in actin binding (fC1-C2-actin FRET) ([4]; skeletal MyBP-C): 24%
effect on cardiac MF ATPase activity (in words) [5]: ATPase-activating effect
Compound: CC[C@H](C)C[C@H](C)CCCCCCCCC(=O)N[C@H]1C[C@@H](O)[C@@H](O)NC(=O)[C@@H]2[C@@H](O)CCN2C(=O)[C@H]([C@H](O)CC(N)=O)NC(=O)[C@H]([C@H](O)[C@@H](O)c2ccc(O)cc2)NC(=O)[C@@H]2C[C@@H](O)CN2C(=O)[C@H]([C@@H](C)O)NC1=O [Pneumocandin B0] ({Tetradecanoyl(10R,12S-Me2)}-[Orn(4R-OH,5R-OH)]T[Hyp][hTyr(3S-OH,4S-OH)][Gln(3R-OH)][Pro(3S-OH)]; lactam 1-C)
cC0-C2/cC0-C2#P (ratio of FLT changes) [1]: 0.9
cC0-C2 FLT change (% change from DMSO, FLT of TMR-MyBP-C) [1]: 12.4%
cC0-C2#P FLT change (% change from DMSO, FLT of TMR-MyBP-C) [2]: 13.2%
cC0-C2/fC1-C2 (ratio of FLT changes) [3]: 1.1
fC1-C2 FLT change (% change from DMSO, FLT of TMR-MyBP-C) [3]: 11.4%
